The numbers were not newly measured in patent publication US20200215051A1, “NEBULIZATION COMPOSITION COMPRISING TIOTROPIUM AND INDACATEROL” (GLENMARK SPECIALTY S.A., priority 2019, published 2020), which cites them from elsewhere.

The conditions of the data set: water.

Turning to `CCc1cc2c(cc1CC)CC(NC[C@H](O)c1ccc(O)c3[nH]c(=O)ccc13)C2` [Indacaterol, 5-[(1R)-2-[(5,6-diethyl-2,3-dihydro-1H-inden-2-yl)amino]-1-hydroxyethyl]-8-hydroxy-1H-quinolin-2-one], the aqueous solubility result is on record as “very slightly soluble in water”.
